Laboratory results as given in PubChem BioAssay AID1996.
Converted amounts (≈) assume the structure as drawn.

Conditions: buffer; pH 7.4; 200.0 µM

| Compound | solubility kinetic [µg/mL] |
| --- | --- |
| O=C(Nc1nc2ccccc2n1CCN1CCOCC1)c1ccc(Cl)cc1 | 0.9 (≈ 2.34 µM) |
| Cc1ccc(-c2nc(=S)c3c(n2Cc2cccnc2)CC(C)(C)OC3)cc1 | > 56.6 |
| O=S(=O)(Nc1ccccc1Br)c1cccs1 | > 47.7 |
| COc1ccccc1OCC(O)CN1CCN(C(=O)c2ccccc2)CC1.Cl (centres undefined) | > 61 |
| OC1(CC#CCN2CCCCC2)c2ccccc2-c2ccccc21 | 42.2 (≈ 133 µM) |
| COc1cccc(/C=C(\C#N)c2nc3ccccc3[nH]2)c1OCC(=O)O | > 52.4 |
| NC(=S)c1cc2cc(Br)ccc2oc1=O | < 0.6 |
| CNC(=S)NCc1ccc2[nH]c(C)cc2c1 | > 35 |
| CCCC1(c2ccccc2)NC(=O)N(C/C=C/Cl)C1=O (centres undefined) | > 43.9 |
| CCCCc1ccc(NC(=O)Nc2cccnc2)cc1 | 4 (≈ 14.9 µM) |
| Cc1nnc(NC(=O)C(C)Sc2nnc(-c3ccco3)n2C)s1 (centres undefined) | > 52.6 |
| O=C(CSc1ncn[nH]1)NCCc1ccc(Cl)cc1 | > 44.5 |
| O=C(c1ccc([N+](=O)[O-])cc1)N1CCN(c2ncccn2)CC1 | 46.3 (≈ 148 µM) |
| COc1ccc(C2=NOC(C(=O)Nc3cccnc3)C2)cc1OC (centres undefined) | 46.8 (≈ 143 µM) |
| O=C(NCCCc1ccccc1)c1cncc(Br)c1 | 47.9 (≈ 150 µM) |
| NC(=O)CSc1nc2ccccc2nc1SCC(N)=O | 6.2 (≈ 20.1 µM) |
| O=C1COc2ccc(C(=O)COC(=O)c3ccccc3Cl)cc2N1 | 4.5 (≈ 13 µM) |
| CC(=O)Oc1ccc(C2(C)CC(C)(C)NC(=S)N2C)c(OC(C)=O)c1 (centres undefined) | > 54.7 |
| Clc1ccccc1N=C1SCCS1 | 18.2 (≈ 79.2 µM) |
| CNC(=O)c1ccccc1S(=O)c1ccccc1COC(C)=O (centres undefined) | > 49.7 |
| CC1CCN(C(=O)c2ccc(N3C(=O)C4CCC(C)CC4C3=O)cc2)CC1 (centres undefined) | 48.4 (≈ 131 µM) |
| Cc1ccc2nc(C)c3c(c2c1)N(c1ccccc1)CC3 | > 41.2 |
| Cn1cccc1C(=O)NCC(c1ccc(F)cc1)N1CCOCC1 (centres undefined) | 47.3 (≈ 143 µM) |
| O=C(Nc1ccc(NC(=O)C2CC2)cc1)c1ccco1 | > 40.5 |
| Cc1cc(NC(=O)CSc2nnc(-c3ccccc3F)n2N)no1 | > 52.3 |
| N#Cc1ccc(OCC(=O)NNC(=S)NC(=O)C2CC2)cc1 | > 47.8 |
| O=C(CN1C(=O)NC2NC(=O)NC21)NC1CCCCC1 (centres undefined) | > 42.2 |

| Compound | solubility kinetic [µg/mL] |
| --- | --- |
| Cc1cc([N+](=O)[O-])nn1CC(=O)NCc1ccccc1 | > 41.1 |
| CCCOc1ccc(Cc2c(O)nc(SC)[nH]c2=O)cc1 | 44.6 (≈ 146 µM) |
| N#CN=C(c1ccccc1)c1ccccc1 | 30.4 (≈ 147 µM) |
| CN(C)c1ccc(NC(=O)Nc2cccc3ccccc23)cc1 | 2.6 (≈ 8.51 µM) |
| CC(NC(=O)c1ccccc1Br)C1CC2CCC1C2 (centres undefined) | 20.6 (≈ 63.9 µM) |
| CCN(CC(=O)Nc1ccc2c(c1)OCCO2)CC(=O)Nc1ccccc1C(F)(F)F.O=C(O)C(=O)O | 47.7 |
| O=C(CC(=O)c1ccccc1)Nc1ccccn1 | > 36 |
| CC(=O)CC1(OC(C)=O)C(=O)N(C)c2ccccc21 (centres undefined) | > 39.2 |
| COc1ccc(S(=O)(=O)N(CCC#N)Cc2ccco2)cc1OC | 28.2 (≈ 80.5 µM) |
| O=CNCCCc1nc2ccccc2n1CCc1ccccc1 | > 46.1 |
| N#C/C(=C\C=C\c1ccccc1)C(=O)NCc1ccco1 | 6.3 (≈ 22.6 µM) |
| NS(=O)(=O)c1cc2c(cc1Cl)NC=NS2(=O)=O | > 44.4 |
| COc1ccccc1OCCn1cc(C=O)c2ccccc21 | 7.8 (≈ 26.4 µM) |
| CC1=CC(C)(C)NC(=S)N1c1ccc(C)cc1C | 2.1 (≈ 8.06 µM) |
| COc1ccc(C(=O)NCCNc2ccc([N+](=O)[O-])cn2)cc1 | 16.4 (≈ 51.8 µM) |
| CCOc1ccccc1N1C(=O)CC(Sc2nccc(C)n2)C1=O (centres undefined) | > 51.5 |
| Cc1cc(C)c(NC(=O)CN(C)CC(=O)Nc2cccc(S(=O)(=O)N(C)c3ccccc3)c2)c(C)c1.O=C(O)C(=O)O | 14.3 |
| Cc1cccc(-c2nc(N)nc(N)n2)c1 | 28 (≈ 139 µM) |
| O=[N+]([O-])c1ccccc1/C=C/CN1CCC(O)CC1 | 29.2 (≈ 111 µM) |
| N#C/C(=C\c1ccccc1OCC(=O)O)c1nc2ccccc2[nH]1 | > 47.9 |
| COc1ccc(N2CCN(C(=O)COCC(=O)O)CC2)cc1 | > 46.3 |
| COc1ccc(CCNC(=O)c2ccccc2)cc1 | > 38.3 |
| Cn1ccnc1SCC(=O)Nc1ccc2c(c1)OCCO2 | > 45.8 |
| OCCN1CCN(c2ncnc3sc4c(c23)CCCC4)CC1 | > 47.8 |
| O=C(COc1ccccc1)N1CCN=C1SCc1ccccc1 | 14.3 (≈ 43.8 µM) |
| O=C(COc1ccccc1)NS(=O)(=O)c1ccccc1 | 38.1 (≈ 131 µM) |
| CC1CCCN(C(=O)/C(=C/c2ccco2)NC(=O)c2ccccc2)C1 (centres undefined) | > 50.8 |

| Compound | solubility kinetic [µg/mL] |
| --- | --- |
| O=C(c1cccc(F)c1)N1CCC2(CC1)NCCc1[nH]cnc12 | > 47.2 |
| Cc1cc(C)c2c(N)c(C(=O)c3ccccc3Cl)sc2n1 | 0.4 (≈ 1.26 µM) |
| COc1ccccc1Nc1nc(Cl)c(C=O)s1 | 12.1 (≈ 45 µM) |
| Cc1cccc(N2CCN(C(=O)c3oc4ccc(Br)cc4c3C)CC2)c1C | 4.3 (≈ 10.1 µM) |
| CCCCOC(=O)CSc1nc2ccccc2o1 | 5.4 (≈ 20.4 µM) |
| Cc1nc(C)c(-c2csc(Nc3ncccc3C)n2)s1 | < 0.2 |
| NC(CO)(CO)COCc1ccccc1 | > 31.7 |
| O=C(/C=C/c1c(F)cccc1Cl)N1CCOCC1 | 39.8 (≈ 148 µM) |
| N#CCc1ccc(Oc2ncccn2)cc1 | > 31.7 |
| COCCN(Cc1ccc(F)cc1)C(=O)c1cc2ccccc2oc1=O | > 53.3 |
| O=C(Nc1cc(Cl)ccc1N1CCOCC1)c1ccco1 | 3.5 (≈ 11.4 µM) |
| CCN(/C=N/S(=O)(=O)c1ccc(Cl)cc1)CC | > 41.2 |
| Cl.NCCSC1CC(=O)N(c2ccc(F)cc2)C1=O (centres undefined) | 29.5 |
| CCN(CC)S(=O)(=O)c1ccc2oc(SCC(=O)NC3CC3)nc2c1 | > 57.5 |
| CCOc1ccc(C2/C(=C(/O)c3ccc4c(c3)CC(C)O4)C(=O)C(=O)N2CC2CCCO2)cc1 (centres undefined) | 61.8 (≈ 133 µM) |
| CC1CN(S(=O)(=O)c2cccc(C(=O)NCCc3ccc(S(N)(=O)=O)cc3)c2)CC(C)O1 (centres undefined) | > 72.2 |
| Cc1ccc(NC(=O)O/N=C/c2ccc(F)cc2)cc1 | 23.1 (≈ 84.8 µM) |
| C=CC(=O)NC1CC2CCC1(C)C2(C)C (centres undefined) | > 31.1 |
| CCC1=C([N+](=O)[O-])C(c2ccc3c(c2)OCO3)NC(=O)N1 (centres undefined) | > 43.7 |
| O=C(Nc1ccccn1)Nc1ccccc1Cl | 0.3 (≈ 1.21 µM) |
| Cn1cccc1C(=O)OCc1ccc(C(C)(C)C)cc1 | 0.7 (≈ 2.58 µM) |
| O=C(N/N=C/c1ccccn1)C(O)c1ccccc1 (centres undefined) | > 38.3 |
| CC(=O)c1cccc(NC2c3ccccc3C(=O)N2Cc2ccco2)c1 (centres undefined) | 43.3 (≈ 125 µM) |
| O=C(COC(=O)[C@H](Cc1ccccc1)NC(=O)c1ccco1)Nc1ccccc1 | > 58.9 |
| COC(=O)c1ccc(/C=C/C(=O)OCC(=O)NCc2cccs2)cc1 | 27.4 (≈ 76.2 µM) |

Now from value to compound:

| solubility kinetic [µg/mL] | Compound |
| --- | --- |
| 10.7 (≈ 29 µM) | CC(=O)c1ccc(N2CCN(C(=O)c3cc4c(s3)CCCC4)CC2)cc1 |
| 22 (≈ 48.8 µM) | O=C(Nc1ccc(S(=O)(=O)NC2=NCCCCC2)cc1)c1ccc(Cl)c([N+](=O)[O-])c1 |
| 36 (≈ 108 µM) | CC(=O)Nc1ccc(C(=O)OCC(=O)N(C)C2CCCCC2)cc1 |
| > 45 | Cc1ccc(Cl)cc1NS(=O)(=O)c1cn(C)nc1C |
| > 50.2 | CNC(=O)COc1ccc(S(=O)(=O)Nc2ccc(C)cc2)cc1 |
| < 0.6 | Cc1cc(C)c(S(=O)(=O)N2CCc3ccccc32)c(C)c1 |
| 50.7 (≈ 148 µM) | CCCC(C)NC(=O)COC(=O)c1cccc(NS(C)(=O)=O)c1 (centres undefined) |
| 5 (≈ 16.1 µM) | CC(=O)c1ccc(NC(=O)CCOc2cc(C)ccc2C)cc1 |
| 3.7 (≈ 12.7 µM) | COC(=O)c1sc(NC(=O)c2ccco2)c(C#N)c1C |
| 1.4 (≈ 3.66 µM) | CCCCCC1CC(CC(=O)NC(=S)Nc2ccccc2Cl)C(=O)O1 (centres undefined) |
| 0.5 (≈ 1.72 µM) | Cc1ccc(C(=O)Nc2c(C)cc(C)c3cccnc23)cc1 |
| 17.6 (≈ 60.6 µM) | CCc1ccc(CNC(=O)C(=O)NCC2CCCO2)cc1 (centres undefined) |
| > 45.8 | Nc1nc2sc3c(c2cc1C(=O)NCC(=O)O)CCCC3 |
| 3.1 (≈ 9.86 µM) | NC(=O)c1ccccc1NC(=O)COc1ccc2c(c1)OCO2 |
| 39 (≈ 128 µM) | Cc1ccc2nc(SCC(=O)Nc3nonc3N)[nH]c2c1 |
| < 0.4 | COc1ccc(NC(=O)NCCc2ccc(Cl)cc2)cc1OC |
| 31.5 (≈ 114 µM) | COc1ccc(NC(=O)C2CC3CCC2C3)c(OC)c1 (centres undefined) |
| > 51.5 | O=C(CSc1ccc2ccccc2n1)NCCCN1CCCC1=O |
| > 49.7 | COC(=O)c1[nH]c2ccccc2c1NC(=O)C(C)N1CCOCC1 (centres undefined) |
| 5.8 (≈ 21.5 µM) | COc1ccc(C(=O)CNc2ccc(C)cc2C)cc1 |

| solubility kinetic [µg/mL] | Compound |
| --- | --- |
| > 47.3 | CCc1noc(C)c1C(=O)Nc1ccccc1N1CCOCC1 |
| 3 (≈ 10.1 µM) | CCc1c(C(=O)Nc2ccc(C)c(C)c2)[nH]c(C)c1C(C)=O |
| 60.7 (≈ 144 µM) | COC(=O)c1ccc(CNC(=O)[C@@H]2CCCN2S(=O)(=O)c2ccccc2F)cc1 |
| 36.1 (≈ 145 µM) | O=C(OCC(=O)N1CCCC1)c1ccccc1O |
| > 47.6 | Cc1cc(C)cc(C(=O)NCC(=O)N2CCC(C(N)=O)CC2)c1 |
| > 52.6 | O=C(NCc1ccccn1)C(=O)Nc1cc2c3c(c1)CC(=O)N3CCC2 |
| 36.3 (≈ 139 µM) | O=Cc1ccc(C(=O)OCC(=O)N2CCCC2)cc1 |
| > 64.6 | COc1ccc(N2CCN(C(CNC(=O)C(=O)NCCCO)c3ccco3)CC2)cc1 (centres undefined) |
| > 50.5 | NC(=O)c1ccsc1NC(=O)CN1C(=O)NC2(CCCC2)C1=O |
| 12.1 (≈ 24.9 µM) | NS(=O)(=O)c1ccc(CCNC(=O)c2ccc(Cl)c(S(=O)(=O)N3CCCCC3)c2)cc1 |
| > 38.2 | O=C(COC(=O)C1CC1)Nc1ccc(Cl)cn1 |
| > 37.2 | Cc1cccc(NC(=O)CN2CCOCC2)c1C |
| > 37.4 | COc1cccc(CN2CCCCC2C(=O)O)c1 (centres undefined) |
| > 45.2 | Cc1ccc(C)c(NC(=O)CCC(=O)NN=C2CCCC2)c1 |
| > 47.9 | COc1cccc(CC(=O)OCC(=O)NC2CCCCCC2)c1 |
| > 44.8 | CCN(CC)C(=O)Cn1cc(C(=O)C2CC2)c2ccccc21 |
| 14.6 (≈ 42.8 µM) | Cn1c(=O)c2ccccc2n(CC(=O)NCCC2=CCCCC2)c1=O |
| > 45.6 | CC(C)(CC(=O)O)CC(=O)Nc1ccc(Cl)c(Cl)c1 |
| 37.9 (≈ 115 µM) | O=C(O)CSCC(=O)NCc1csc2ccc(Cl)cc12 |
| > 49.3 | CSc1ccccc1NC(=O)CCn1c(=O)oc2ccccc21 |
